According to patent publication US20050080054A1, “Treating androgen decline in aging male (ADAM)-associated conditions with SARMS” (priority 2002, published 2005):
Values joined by “and” are separate entries in the source; they are usually repeats but may differ in a detail not shown here. Identical values can stand only once. “Also recorded” adds a separate entry of the source.

How the values were obtained:
Format in all cases: in vivo, rat
[1] = Plasma FSH levels in male rats of varying hormonal status; details: 0.5 mg/day; for Plasma FSH levels: 14 days, n = 5
Text: (§1) Compound VI and Compound VII were synthesized and characterized in the laboratory of Dr. Duane Miller at the University of Tennessee, Memphis, Tenn. Male Sprague-Dawley rats were purchased from Harlan Biosciences (Indianapolis, Ind.). The animals were maintained on a 12-h cycle of light and dark with food and water available ad libitum. All animal studies were reviewed and approved by the Animal Care and Use Committee of The Ohio State University, and conformed to the Principles of Laboratory Animal Care (NIH publication #85-23, revised 1985). Immature male Sprague-Dawley rats weighing 187 to 214 g were randomly distributed into 9 groups of 5 animals. One day before the initiation of drug treatment, groups 4 through 6 and groups 7 through 9 received unilateral or bilateral orchidectomy, respectively, via a midline scrotal incision. […] All drugs given to animals were freshly prepared as solutions in polyethylene glycol 300 (PEG 300). Groups 4 and 7 received treatment with vehicle alone (i.e., PEG 300). Animals in groups 3, 6, and 9 received testosterone propionate (TP, 0.5 mg/day) via implantation of subdermal osmotic pumps (Model 2002, Durect Corporation, Palo Alto, Calif.). Animals in groups 2, 5, and 8 received Compound VI or Compound VII (0.5 mg/day) via implantation of subdermal osmotic pumps. After 14 days of drug treatment, rats were weighed, anesthetized, and sacrificed. Blood samples were collected by venipuncture of the abdominal aorta. Plasma samples were analyzed for testosterone, FSH, LH and osteocalcin. Testosterone concentrations were measured by AniLytics Inc. (Gaithersburg, Md.). FSH and LH levels were measured by the National Hormone and Peptide Program (Dr. A F Parlow, UCLA, CA). Plasma osteocalcin levels were determined using a commercially available rat osteocalcin EIA kit from Biomedical Technologies Inc. (Stoughton, Mass.). The ventral prostates, seminal vesicles, and levator ani muscle were removed and weighed. Osmotic pumps were also removed from animals to check for correct pump operation. The weights of all organs were normalized to body weight, and analyzed for any statistically significant differences between groups using single-factor ANOVA with the alpha value set a priori at p<0.05. The weights of prostates and seminal vesicles were used as indices for evaluation of androgenic activity, and the levator ani muscle weight was used to evaluate the anabolic activity. Statistical analyses of parameters from complete blood count or serum chemical profiling, wherever applicable, were performed by single-factor ANOVA with the alpha value set a priori at p<0.05.

[2] = Plasma osteocalcin levels in male rats of varying hormonal status; details: 0.5 mg/day; for Plasma osteocalcin levels: 14 days, n = 5
Text: as §1

[3] = tested on: androgen-responsive tissues (prostate, seminal vesicles, levator ani muscle); experiment: Androgenic and anabolic activity: weight of androgen-responsive tissues in intact, hemi-orchidectomized and castrated rats; details: for Levator Ani weight / Prostate weight / Seminal Vesicle weight: n = 5
Experimental: FIG. 3: Androgenic and Anabolic activity of Compound VI and Compound VII in rats. Male rats with normal testicular function (no surgical manipulation) were left untreated (Intact), treated with compound VI (0.5 mg/day), compound VII (0.5 mg/day) or testosterone proprionate (TP, 0.5 mg/day), and the weight of androgen-responsive tissues (prostate—FIG. 3A, semimal vesicles—FIG. 3B, and levator ani muscle—FIG. 3C) was determined.
(§2) FIG. 4: Androgenic and Anabolic activity of Compound VI and Compound VII in rats. Male rats received unilateral orchidectomy (Hemi-orchidectomized) and were left untreated (Intact), treated with vehicle alone (PEG 300), Compound VI (0.5 mg/day), Compound VII (0.5 mg/day), or testosterone proprionate (TP, 0.5 mg/day), and the weight of androgen-responsive tissues (prostate—FIG. 4A, semimal vesicles—FIG. 4B, and levator ani muscle—FIG. 4C) was determined.
as §2, with “5:” for “4:”, “bilateral” for “unilateral”, “(Castrated)” for “(Hemi-orchidectomized)”, “5A,” for “4A,”, “5B,” for “4B,”, “5C)” for “4C)”
as §1

[4] = castrated rats, 0.5 mg/day, 14 days
[5] = hemi-orchidectomized animals, 0.5 mg/day
[6] = hemi-orchidectomized rats, 0.5 mg/day, 14 days
[7] = intact rats, 0.5 mg/day, 14 days

SMILES: CC(=O)Nc1ccc(OC[C@](C)(O)C(=O)Nc2ccc([N+](=O)[O-])c(C(F)(F)F)c2)cc1 [Compound VI]
- effect on plasma FSH levels ([1]; TP statement for castrated male rats): no effect
- Plasma FSH levels ([1]; castrated male rats): 69.6 ± 11.7 ng/mL
- Plasma FSH levels ([1]; hemi-orchidectomized male rats): 15.2 ± 2.2 ng/mL
- Plasma FSH levels ([1]; intact male rats): 14.4 ± 1.7 ng/mL
- effect on plasma osteocalcin levels ([2]; Compound VI statement for hemi-orchidectomized and castrated animals): significant increase
- Plasma osteocalcin levels ([2]; castrated male rats): 94.215 ± 12.568 ng/mL
- Plasma osteocalcin levels ([2]; hemi-orchidectomized male rats): 89.804 ± 15.517 ng/mL
- Plasma osteocalcin levels ([2]; intact male rats): 55.584 ± 9.715 ng/mL
- increasing the weight of the prostate, compared with TP ([3]; castrated animals): less effective than TP
- Levator Ani weight [3, 4]: 100.65 % of intact control
- Prostate weight [3, 4]: 32.55 % of intact control
- Seminal Vesicle weight [3, 4]: 16.47 % of intact control
- agonist character in levator ani muscle ([3]; from organ weights in rats): full agonist
- agonist character in prostate and seminal vesicles ([3]; from organ weights in rats): partial agonist
- effect on weight of the levator ani muscle ([3]; hemi-orchidectomized and castrated animals): significant increases
- size of the levator ani muscle, of that observed in untreated hemi-orchidectomized animals [3, 5]: 108%
- size of the prostate, of that observed in untreated hemi-orchidectomized animals [3, 5]: 75%
- size of the seminal vesicles, of that observed in untreated hemi-orchidectomized animals [3, 5]: 79%
- Levator Ani weight [3, 6]: 108.10 % of intact control
- Prostate weight [3, 6]: 74.69 % of intact control
- Seminal Vesicle weight [3, 6]: 78.55 % of intact control
- effect on prostate weights ([3]; intact and hemi-orchidectomized animals): significant decreases in prostate weights
- change in size of levator ani muscle ([3]; intact animals, 0.5 mg/day): no statistically significant changes
- change in size/weight of the seminal vesicles ([3]; intact animals, 0.5 mg/day): no statistically significant changes; also recorded: no effect
- Levator Ani weight [3, 7]: 109.15 % of intact control
- Prostate weight [3, 7]: 79 % of intact control and 79.41 % of intact control
- Seminal Vesicle weight [3, 7]: 90.54 % of intact control
- adverse pharmacologic effects ([3]; male rats, 0.5 mg/day, 14 days): No adverse pharmacologic effects were observed
